The term IC50 denotes the concentration that gives 50% inhibition.

This note sets out measurements from patent publication US8586565B2, “Kinase inhibitors useful for the treatment of myleoproliferative diseases and other proliferative diseases” (Deciphera Pharmaceuticals, LLC, priority 2006, dated 2013).

Experiment [1] deals with T1, Abl kinase (Seq. ID no. 1) (Homo sapiens, UniProt P00519).
T1 construct: His6 with TEV cleavage site ([…] leader) (N); purchased deCode Genetics
T1 sequence (P00519 with tags, fused parts or gaps): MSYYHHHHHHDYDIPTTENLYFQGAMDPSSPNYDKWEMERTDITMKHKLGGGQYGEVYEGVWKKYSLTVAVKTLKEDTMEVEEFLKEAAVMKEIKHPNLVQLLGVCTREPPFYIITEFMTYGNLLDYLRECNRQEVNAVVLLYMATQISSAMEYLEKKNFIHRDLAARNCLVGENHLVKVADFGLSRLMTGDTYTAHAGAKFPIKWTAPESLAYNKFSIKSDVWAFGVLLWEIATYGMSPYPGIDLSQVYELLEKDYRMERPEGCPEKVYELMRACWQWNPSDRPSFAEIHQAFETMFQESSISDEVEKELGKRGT
The experiment can be described thus: Abl kinase (u-Abl) spectrophotometric coupled kinase assay. The note with it: for IC50: unphosphorylated-Abl kinase, 2 h preincubation, ATP 500 μM. The experiment is classed as biochemical. Here is the method: Abl kinase (Seq. […] Activity of Abl kinase (Seq. […] Science (2000) 289, 1938-1942). In this assay, the oxidation of NADH (thus the decrease at A340 nm) was continuously monitored spectrophometrically. […] Test compounds were incubated with Abl kinase (Seq. […] The absorption at 340 nm was monitored continuously for 2 hours at 30° C. on Polarstar Optima plate reader (BMG). The reaction rate was calculated using the 1.0 to 2.0 h time frame. Percent inhibition was obtained by comparison of reaction rate with that of a control (i.e. with no test compound). IC50 values were calculated from a series of percent inhibition values determined at a range of inhibitor concentrations using software routines as implemented in the GraphPad Prism software package.

Experiment [2] deals with T2, pAbl kinase (Seq. ID no. 1) (Homo sapiens, UniProt P00519).
T2 construct: His6 with TEV cleavage site ([…] leader) (N); purchased deCode Genetics
T2 sequence (P00519 with tags, fused parts or gaps): T1 sequence (P00519 with tags, fused parts or gaps)
Kind of experiment: pAbl kinase spectrophotometric coupled kinase assay. The class given is biochemical. The note with it: for IC50: phosphorylated-Abl kinase, 2 h preincubation, ATP 500 μM, read-out: p-Abl IC50. Here is the method: pAbl Kinase Assay Activity of pAbl kinase (Seq. […] Science (2000) 289, 1938-1942). In this assay, the oxidation of NADH (thus the decrease at […]) was continuously monitored spectrophometrically. […] Test compounds were incubated with pAbl (SEQ. […] The absorption at 340 nm was monitored continuously for 2 hours at 30° C. on Polarstar Optima plate reader (BMG). The reaction rate was calculated using the 1.0 to 2.0 h time frame. Percent inhibition was obtained by comparison of reaction rate with that of a control (i.e. with no test compound). IC50 values were calculated from a series of percent inhibition values determined at a range of inhibitor concentrations using software routines as implemented in the GraphPad Prism software package. pAbl was obtained as a phosphorylated form of the enzyme used in the Abl assay (see above).

For experiment [3], the target named is T3, Abl(T315I) (Seq. ID no. 2) kinase (Homo sapiens, UniProt P00519, T315I).
T3 construct: His6 with TEV cleavage site ([…] leader) (N); purchased decode Genetics
T3 sequence (P00519 with tags, fused parts or gaps T315I): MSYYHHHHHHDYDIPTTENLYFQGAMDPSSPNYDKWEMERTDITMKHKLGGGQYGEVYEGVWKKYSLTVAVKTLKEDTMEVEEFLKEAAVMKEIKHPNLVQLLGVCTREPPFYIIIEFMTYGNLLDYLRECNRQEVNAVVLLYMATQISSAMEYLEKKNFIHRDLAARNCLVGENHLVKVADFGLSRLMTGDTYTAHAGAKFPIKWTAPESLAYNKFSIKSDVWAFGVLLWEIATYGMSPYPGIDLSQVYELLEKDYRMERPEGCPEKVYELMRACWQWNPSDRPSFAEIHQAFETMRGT
The experiment can be described thus: Abl(T315I) kinase spectrophotometric coupled kinase assay. The class given is biochemical. The note with it: for IC50: T315I mutant Abl kinase, 2 h preincubation, ATP 500 μM. Here is the method:
Science (2000) 289, 1938-1942). In this assay, the oxidation of NADH (thus the decrease at A340nm) was continuously monitored spectrophometrically. […] (SEQ. […] The absorption at 340 nm was monitored continuously for 2 hours at 30° C. on Polarstar Optima plate reader (BMG). The reaction rate was calculated using the 1.0 to 2.0 h time frame. Percent inhibition was obtained by comparison of reaction rate with that of a control (i.e. with no test compound). IC50 values were calculated from a series of percent inhibition values determined at a range of inhibitor concentrations using software routines as implemented in the GraphPad Prism software package.

In experiment [4] the test system is BaF3 cells transfected with wild type bcr-Abl. Kind of experiment: Cell proliferation assay, BaF3 wt bcr-abl. The class given is cell-based. Conditions: Mus musculus, 72 hours, Cell Titer Blue. Here is the method: (§1) Briefly, cells were grown in RPMI 1640 supplemented with 10% characterized fetal bovine serum (HyClone, Logan, Utah) at 37 degrees Celsius, 5% CO2, 95% humidity. Cells were allowed to expand until reaching 80% saturation at which point they were subcultured or harvested for assay use.
(§2) A serial dilution of test compound was dispensed into a 96 well black clear bottom plate (Corning, Corning, N.Y.). For each cell line, three thousand cells were added per well in complete growth medium. Plates were incubated for 72 hours at 37 degrees Celsius, 5% CO2, 95% humidity. At the end of the incubation period Cell Titer Blue (Promega, Madison, Wis.) was added to each well and an additional 4.5 hour incubation at 37 degrees Celsius, 5% CO2, 95% humidity was performed. Plates were then read on a BMG Fluostar Optima (BMG, Durham, N.C.) using an excitation of 544 nm and an emission of 612 nm. Data was analyzed using Prism software (Graphpad, San Diego, Calif.) to calculate IC50's.
On the technique in general: The colour change of resazurin is a common sign of viable cells or microbes.

Experiment [5] deals with BaF3 cells transfected with bcr-Abl point mutant T315I. Kind of experiment: Cell proliferation assay, BaF3 T315I bcr-abl. The class given is cell-based. The note with it: Mus musculus, 72 hours, Cell Titer Blue. The method, then:
as §1, §2

Experiment [6] relates to BaF3 cells transfected with bcr-Abl point mutant Y253F. The experiment can be described thus: Cell proliferation assay, BaF3 Y253F bcr-abl. Conditions: Mus musculus, 72 hours, Cell Titer Blue. The experiment is classed as cell-based. Here is the method: as §1, §2
In experiment [7] the test system is BaF3 cells transfected with bcr-Abl point mutant E255K. The experiment can be described thus: Cell proliferation assay, BaF3 E255K bcr-abl. The class given is cell-based. The note with it: Mus musculus, 72 hours, Cell Titer Blue. The method, then:
as §1, §2

In experiment [8] the test system is BaF3 cells transfected with bcr-Abl point mutant M351T. Kind of experiment: Cell proliferation assay, BaF3 M351T bcr-abl. The experiment is classed as cell-based. Conditions: Mus musculus, 72 hours, Cell Titer Blue. The method, then: as §1, §2

A value given as a limit tells only on which side of the number the result lay.

For the molecule `CNC(=O)c1cc(Oc2ccc(NC(=O)Nc3cc(C(C)(C)C)nn3-c3ccc4[nH]ncc4c3)c(F)c2)ccn1` [Example 4, 1-(3-tert-butyl-1-(1H-indazol-5-yl)-1H-pyrazol-5-yl)-3-(2-fluoro-4-(2-(methylcarbamoyl)pyridin-4-yloxy)phenyl)urea], the “times more potent vs. u-Abl kinase than Compound C” value in experiment [1] (relative to unsubstituted (R16=H) Compound C) is reported as 2.2 times. Moreover, the IC50 was 0.7 nM in experiment [1], 20 nM in experiment [2] and 12 nM in experiment [3]. Moreover, the “times more potent vs. p-Abl kinase than Compound C” value in experiment [2] (relative to Compound C) is 18 times. Further, in experiment [3] (relative to Compound C), the “times more potent vs. T315I mutant Abl kinase than Compound C” value worked out at 13 times.

As for `CNC(=O)c1cc(Oc2ccc(NC(=O)Nc3cc(C(C)(C)C)nn3-c3ccc4ncccc4c3)cc2C)ccn1` [Example 5, 1-(3-tert-butyl-1-(quinolin-6-yl)-1H-pyrazol-5-yl)-3-(3-methyl-4-(2-(methylcarbamoyl)pyridin-4-yloxy)phenyl)urea], the IC50 in experiment [1] is 0.7 nM; in experiment [2], 6 nM; in experiment [3], 250 nM; in experiment [4], 8 nM; in experiment [5], 25 nM; in experiment [6], 15 nM. In addition, the results for the concentration for half-maximal inhibition (IC50) in experiment [7] and in experiment [8] were 62 nM and 10 nM, respectively. Also, in experiment [2] (relative to unsubstituted (R16=H) Compound A), the “times more potent vs. p-Abl kinase than Compound A” value is recorded as 4 times.

As for `CC(C)c1cc(NC(=O)Nc2ccc(Oc3ccnc(C(N)=O)c3)cc2F)n(-c2ccc3ncccc3c2)n1` [Example 15, 1-(4-(2-carbamoylpyridin-4-yloxy)-2-fluorophenyl)-3-(3-isopropyl-1-(quinolin-6-yl)-1H-pyrazol-5-yl)urea], in experiment [1] (relative to unsubstituted (R16=H) Compound B), the “times more potent vs. u-Abl kinase than Compound B” value is 8 times. For the same molecule, the IC50 in experiment [1] amounted to 1 nM; in experiment [2], 35 nM; in experiment [3], 56 nM; in experiment [4], 11 nM; in experiment [5], 25 nM; in experiment [6], 86 nM. Moreover, the IC50 came out at 238 nM in experiment [7] and 13 nM in experiment [8]. Moreover, the “times more potent vs. p-Abl kinase than Compound B” value in experiment [2] (relative to Compound B) is on record as more than 14 times. Moreover, the “times more potent vs. T315I mutant Abl kinase than Compound B” value in experiment [3] (relative to Compound B) is 18 times.
